Laboratory results taken from the supplement of paper PMC10307832.

What was measured:
Test in all cases: relative viability (nuclei count vs DMSO), 5 days (fraction); higher = more cells survive
HCC-15 = test system: HCC-15
Procedure, shortened: (§1)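 Relative viability was taken as the ratio of nuclei in treated wells to nuclei in vehicle wells. Lung cancer cell lines in 1536-well plates received compounds by pin tool one day after seeding, either one drug alone or a fixed anchor-drug dose plus five library-drug doses (not always all listed) in √10 steps. Nuclei were counted on 4× images after 5 days of treatment, and values are medians of duplicate plates.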

HCC-44 = test system: HCC-44
Procedure, shortened: as §1

UMC-11 = test system: UMC-11
Procedure, shortened: as §1

NCI-H1755 = test system: NCI-H1755
Procedure, shortened: as §1

EKVX = test system: EKVX
Procedure, shortened: as §1

NCI-H1623 = test system: NCI-H1623
Procedure, shortened: as §1

LCLC-103H = test system: LCLC-103H
Procedure, shortened: as §1

NCI-H1395 = test system: NCI-H1395
Procedure, shortened: as §1

`O=c1cc(N2CCOCC2)oc2c(-c3cccc4c3sc3ccccc34)cccc12` + CCNC(=O)c1noc(-c2cc(C(C)C)c(O)cc2O)c1-c1ccc(CN2CCOCC2)cc1 [Luminespib] (partner 0.01 µM) gave a relative viability (HCC-15; first compound 0.01 µM) of 0.301, a relative viability (HCC-15; first compound 0.03162 µM) of 0.294 and a relative viability (HCC-15; first compound 0.1 µM) of 0.604. It also gave a relative viability (HCC-15; first compound 0.3162 µM) of 0.339, a relative viability (HCC-15; first compound 1 µM) of 0.344 and a relative viability (HCC-44; first compound 0.01 µM) of 1.02. It also gave a relative viability (HCC-44; first compound 0.03162 µM) of 1.01, a relative viability (HCC-44; first compound 0.1 µM) of 1.31 and a relative viability (HCC-44; first compound 0.3162 µM) of 0.998. The relative viability (HCC-44; first compound 1 µM) was 1.11, the relative viability (UMC-11; first compound 0.01 µM) was 0.971 and the relative viability (UMC-11; first compound 0.03162 µM) was 0.997. It also gave a relative viability (UMC-11; first compound 0.1 µM) of 1.12, a relative viability (UMC-11; first compound 0.3162 µM) of 0.986 and a relative viability (UMC-11; first compound 1 µM) of 0.982. The relative viability (NCI-H1755; first compound 0.01 µM) was 0.501, the relative viability (NCI-H1755; first compound 0.03162 µM) was 0.265 and the relative viability (NCI-H1755; first compound 0.1 µM) was 0.496. For the same compound, the relative viability (NCI-H1755; first compound 0.3162 µM) was 0.419, the relative viability (NCI-H1755; first compound 1 µM) was 0.563 and the relative viability (EKVX; first compound 0.01 µM) was 0.9. For the same compound, the relative viability (EKVX; first compound 0.03162 µM) was 0.872, the relative viability (EKVX; first compound 0.1 µM) was 0.878 and the relative viability (EKVX; first compound 0.3162 µM) was 0.917. It also gave a relative viability (EKVX; first compound 1 µM) of 0.891, a relative viability (NCI-H1623; first compound 0.01 µM) of 0.383 and a relative viability (NCI-H1623; first compound 0.03162 µM) of 0.521. The relative viability (NCI-H1623; first compound 0.1 µM) was 0.495, the relative viability (NCI-H1623; first compound 0.3162 µM) was 0.475 and the relative viability (NCI-H1623; first compound 1 µM) was 0.409. It also gave a relative viability (LCLC-103H; first compound 0.01 µM) of 0.912, a relative viability (LCLC-103H; first compound 0.03162 µM) of 1.01 and a relative viability (LCLC-103H; first compound 0.1 µM) of 1.02. It also gave a relative viability (LCLC-103H; first compound 0.3162 µM) of 0.898, a relative viability (LCLC-103H; first compound 1 µM) of 0.925 and a relative viability (NCI-H1395; first compound 0.01 µM) of 0.726. The relative viability (NCI-H1395; first compound 0.03162 µM) was 0.75, the relative viability (NCI-H1395; first compound 0.1 µM) was 0.683 and the relative viability (NCI-H1395; first compound 0.3162 µM) was 0.622. For the same compound, the relative viability (NCI-H1395; first compound 1 µM) was 0.532.

With `CCN(CC)CCCCNc1ncc2cc(-c3cc(OC)cc(OC)c3)c(NC(=O)NC(C)(C)C)nc2n1` + CCNC(=O)c1noc(-c2cc(C(C)C)c(O)cc2O)c1-c1ccc(CN2CCOCC2)cc1 [Luminespib] (partner 0.01 µM) the relative viability (HCC-15; first compound 0.01 µM) was 0.251, the relative viability (HCC-15; first compound 0.03162 µM) was 0.257 and the relative viability (HCC-15; first compound 0.1 µM) was 0.348. The relative viability (HCC-15; first compound 0.3162 µM) was 0.422, the relative viability (HCC-15; first compound 1 µM) was 0.266 and the relative viability (HCC-44; first compound 0.01 µM) was 1.07. The relative viability (HCC-44; first compound 0.03162 µM) was 1.06, the relative viability (HCC-44; first compound 0.1 µM) was 0.801 and the relative viability (HCC-44; first compound 0.3162 µM) was 1.06. It also gave a relative viability (HCC-44; first compound 1 µM) of 0.866, a relative viability (UMC-11; first compound 0.01 µM) of 1.05 and a relative viability (UMC-11; first compound 0.03162 µM) of 1.08. For the same compound, the relative viability (UMC-11; first compound 0.1 µM) was 1.25, the relative viability (UMC-11; first compound 0.3162 µM) was 1.04 and the relative viability (UMC-11; first compound 1 µM) was 0.94. It also gave a relative viability (NCI-H1755; first compound 0.01 µM) of 0.455, a relative viability (NCI-H1755; first compound 0.03162 µM) of 0.694 and a relative viability (NCI-H1755; first compound 0.1 µM) of 0.458. It also gave a relative viability (NCI-H1755; first compound 0.3162 µM) of 0.606, a relative viability (NCI-H1755; first compound 1 µM) of 0.44 and a relative viability (EKVX; first compound 0.01 µM) of 0.842. The relative viability (EKVX; first compound 0.03162 µM) was 0.909, the relative viability (EKVX; first compound 0.1 µM) was 0.934 and the relative viability (EKVX; first compound 0.3162 µM) was 0.971. It also gave a relative viability (EKVX; first compound 1 µM) of 0.83, a relative viability (NCI-H1623; first compound 0.01 µM) of 0.605 and a relative viability (NCI-H1623; first compound 0.03162 µM) of 0.54. It also gave a relative viability (NCI-H1623; first compound 0.1 µM) of 0.443, a relative viability (NCI-H1623; first compound 0.3162 µM) of 0.607 and a relative viability (NCI-H1623; first compound 1 µM) of 0.722. For the same compound, the relative viability (LCLC-103H; first compound 0.01 µM) was 1.07, the relative viability (LCLC-103H; first compound 0.03162 µM) was 1.06 and the relative viability (LCLC-103H; first compound 0.1 µM) was 0.924. The relative viability (LCLC-103H; first compound 0.3162 µM) was 1.01, the relative viability (LCLC-103H; first compound 1 µM) was 0.739 and the relative viability (NCI-H1395; first compound 0.01 µM) was 0.659. For the same compound, the relative viability (NCI-H1395; first compound 0.03162 µM) was 0.878, the relative viability (NCI-H1395; first compound 0.1 µM) was 0.662 and the relative viability (NCI-H1395; first compound 0.3162 µM) was 0.65. The relative viability (NCI-H1395; first compound 1 µM) was 0.48.

Work on `O=c1cc(-c2cccc3c2Sc2ccccc2S3)oc(N2CCOCC2)c1` + CCNC(=O)c1noc(-c2cc(C(C)C)c(O)cc2O)c1-c1ccc(CN2CCOCC2)cc1 [Luminespib] (partner 0.01 µM) yielded a relative viability (HCC-15; first compound 0.08 µM) of 0.206, a relative viability (HCC-15; first compound 0.253 µM) of 0.207 and a relative viability (HCC-15; first compound 0.8 µM) of 0.373. The relative viability (HCC-15; first compound 2.53 µM) was 0.242, the relative viability (HCC-15; first compound 8 µM) was 0.276 and the relative viability (HCC-44; first compound 0.08 µM) was 1.17. For the same compound, the relative viability (HCC-44; first compound 0.253 µM) was 0.971, the relative viability (HCC-44; first compound 2.53 µM) was 0.993 and the relative viability (HCC-44; first compound 8 µM) was 1.04. It also gave a relative viability (UMC-11; first compound 0.08 µM) of 1.07, a relative viability (UMC-11; first compound 0.253 µM) of 1.22 and a relative viability (UMC-11; first compound 0.8 µM) of 1.19. For the same compound, the relative viability (UMC-11; first compound 2.53 µM) was 1.25, the relative viability (UMC-11; first compound 8 µM) was 1.34 and the relative viability (NCI-H1755; first compound 0.08 µM) was 0.425. The relative viability (NCI-H1755; first compound 0.253 µM) was 0.614, the relative viability (NCI-H1755; first compound 0.8 µM) was 0.378 and the relative viability (NCI-H1755; first compound 2.53 µM) was 0.641. It also gave a relative viability (NCI-H1755; first compound 8 µM) of 0.5, a relative viability (EKVX; first compound 0.08 µM) of 0.829 and a relative viability (EKVX; first compound 0.253 µM) of 0.924. The relative viability (EKVX; first compound 0.8 µM) was 0.846, the relative viability (EKVX; first compound 2.53 µM) was 0.883 and the relative viability (EKVX; first compound 8 µM) was 0.853. For the same compound, the relative viability (NCI-H1623; first compound 0.08 µM) was 0.615, the relative viability (NCI-H1623; first compound 0.253 µM) was 0.589 and the relative viability (NCI-H1623; first compound 0.8 µM) was 0.472. For the same compound, the relative viability (NCI-H1623; first compound 2.53 µM) was 0.411, the relative viability (NCI-H1623; first compound 8 µM) was 0.495 and the relative viability (LCLC-103H; first compound 0.08 µM) was 0.878. The relative viability (LCLC-103H; first compound 0.253 µM) was 1.17, the relative viability (LCLC-103H; first compound 0.8 µM) was 1.05 and the relative viability (LCLC-103H; first compound 2.53 µM) was 0.959. The relative viability (LCLC-103H; first compound 8 µM) was 0.792, the relative viability (NCI-H1395; first compound 0.08 µM) was 0.632 and the relative viability (NCI-H1395; first compound 0.253 µM) was 0.712. It also gave a relative viability (NCI-H1395; first compound 0.8 µM) of 0.658, a relative viability (NCI-H1395; first compound 2.53 µM) of 0.63 and a relative viability (NCI-H1395; first compound 8 µM) of 0.661.
